Experimental findings from patent US20060100567A1, “Microsurgical tissue treatment system” (Rocky Mountain Biosystems, Inc, priority 2004, published 2006) are described below.

A short description of this assay: Delivery of a topical anesthetic through micro-ablated stratum corneum. The class given is in vivo. The following applies: solution of 4% lidocaine applied for five minutes to approx. 1 cm^2 area ablated by piezoelectric actuator with 60 micron aluminum oxide particles, 10-15 pulses, 20 kHz. As for the experimental part: A piezoelectric actuator was fitted with 60 micron aluminum oxide particles fixed to its surface so as to provide an approximate 1 cm^2 treatment area. Ten to fifteen pulses of less than one second duration were applied with force of less than 1 pound to the area and frequency of 20 kHz. […] A solution of 4% lidocaine was applied to the area and incubated for five minutes. The excess lidocaine was wiped off, and a series of probes was made in and around the area of treatment using a 20 gauge needle or by pinching.

With `CCN(CC)CC(=O)Nc1c(C)cccc1C` [lidocaine], the “anesthesia (sensation on probing with a 20 gauge needle or pinching)” value is “significant anesthesia was obtained”.
